Experimental findings from patent US11414413B2, “Heterocyclic compound as JAK inhibitor, and salts and therapeutic use thereof” (Suzhou Longbiotech Pharmaceuticals Co., Ltd., priority 2016, dated 2022) are described below.

Data set [1] concerns the target JAK2 (Homo sapiens (Human), UniProt O60674). The data set is described as follows: Inhibition of JAK2, luminescence kinase assay (ADP-Glo). The data set is classed as biochemical. To be noted: purified recombinant JAK2. As for the experimental part: (§1) The study of the effect of compounds on the activity of purified recombinant JAK was performed by studying the inhibitory activity of the compounds on JAK from the enzymatic level. The experimental principle is to use a luminescence kinase assay to detect the ADP content produced by the reaction of JAK with the substrate Poly (4:1 Glu, Tyr) peptide: after ADP is converted to ATP, ATP can act as a substrate for the Ultra-Glo luciferase catalytic reaction, producing an optical signal. The luminescence signal is positively correlated with the amount of ADP and kinase activity. Therefore, the inhibitory effect of the compounds on the recombinant JAK was determined by observing the luminescence signal produced by the reaction of JAK and the substrate, and was expressed by IC50.
(§2) Experimental method: 10 different concentrations of compounds were incubated with JAK1, JAK2 and JAK3, respectively, for 60 minutes at 37° C. The substrate and ATP were then added, mixed, and reacted at 37° C. for 50 minutes. 25 μl of ADP-Glo™ was added and mixed for 2 minutes. The reaction was carried out for 50 minutes at room temperature. Further, 50 μl of the detection reagent was added and mixed for 2 minutes, and incubated at room temperature for 50 minutes, and detected by a chemiluminometer.
(In ADP-Glo the light output rises with the ADP produced.)

Data set [2] deals with Wistar rats. The experiment in a line: Effect of repeated administration on hematological parameters in rats. The data set is classed as in vivo, rat. As for the experimental part: 48 healthy Wistar rats were taken, half ♀ and half ♂. According to the body weight, they were randomly divided into the control group (Veh). The compound of Example 3 was administered by gavage at doses of 1.5 mg·kg^−1·d^−1 and 4.5 mg·kg^−1·d^−1. Ruxolitinib was administered by gavage at dose of 4.5 mg·kg^−1·d^−1. There were 12 rats in each group, half ♀ and half ♂. The drug was administered by gavage once a day for 4 weeks, and the hematological parameters were examined 1 day and 2 days after the last administration.

For data set [3], the target named is JAK3 (Homo sapiens (Human), UniProt P52333). The data set is described as follows: Inhibition of JAK3, luminescence kinase assay (ADP-Glo). The data set is classed as biochemical. The following applies: purified recombinant JAK3. The protocol:
as §1, §2

Data set [4] concerns the target JAK1 (Homo sapiens (Human), UniProt P23458). The experiment in a line: Inhibition of JAK1, luminescence kinase assay (ADP-Glo). The data set is classed as biochemical. To be noted: purified recombinant JAK1. As for the experimental part:
as §1, §2

Where [5] appears, read: gavage 4.5 mg·kg−1·d−1 once a day for 4 weeks.

Molecules are shown by their SMILES. pIC50: −log10 of the molar value. Where only a bound is given, the exact number is not on record here.

Chain of JAK2 (O60674 whole entry): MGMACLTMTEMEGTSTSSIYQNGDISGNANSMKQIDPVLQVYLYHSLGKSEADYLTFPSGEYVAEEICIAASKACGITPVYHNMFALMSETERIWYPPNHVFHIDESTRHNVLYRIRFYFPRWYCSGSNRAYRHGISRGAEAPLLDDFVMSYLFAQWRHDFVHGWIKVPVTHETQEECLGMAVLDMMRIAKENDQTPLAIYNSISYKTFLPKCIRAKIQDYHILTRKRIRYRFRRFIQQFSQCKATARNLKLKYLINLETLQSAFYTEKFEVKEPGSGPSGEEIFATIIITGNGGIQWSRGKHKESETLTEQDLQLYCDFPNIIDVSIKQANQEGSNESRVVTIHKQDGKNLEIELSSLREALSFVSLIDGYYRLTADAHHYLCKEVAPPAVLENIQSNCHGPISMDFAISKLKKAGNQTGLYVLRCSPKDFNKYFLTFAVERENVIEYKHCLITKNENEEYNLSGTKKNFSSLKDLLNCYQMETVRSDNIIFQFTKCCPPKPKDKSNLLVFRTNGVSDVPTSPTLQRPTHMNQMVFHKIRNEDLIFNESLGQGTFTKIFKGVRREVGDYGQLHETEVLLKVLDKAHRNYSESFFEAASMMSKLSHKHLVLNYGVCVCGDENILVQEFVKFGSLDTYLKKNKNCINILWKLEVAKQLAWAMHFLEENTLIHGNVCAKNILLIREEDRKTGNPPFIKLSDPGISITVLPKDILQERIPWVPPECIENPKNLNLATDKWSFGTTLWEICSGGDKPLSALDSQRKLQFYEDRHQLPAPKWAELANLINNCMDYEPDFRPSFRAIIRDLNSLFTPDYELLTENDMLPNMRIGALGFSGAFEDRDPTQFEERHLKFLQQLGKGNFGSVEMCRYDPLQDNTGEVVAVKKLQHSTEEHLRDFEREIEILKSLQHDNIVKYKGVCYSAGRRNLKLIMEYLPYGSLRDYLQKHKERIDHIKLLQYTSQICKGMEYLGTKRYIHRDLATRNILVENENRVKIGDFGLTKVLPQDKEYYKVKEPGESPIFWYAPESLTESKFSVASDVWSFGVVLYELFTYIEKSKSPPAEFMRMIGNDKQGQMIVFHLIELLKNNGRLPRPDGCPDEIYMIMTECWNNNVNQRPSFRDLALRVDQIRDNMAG
Chain of JAK1 (P23458 whole entry): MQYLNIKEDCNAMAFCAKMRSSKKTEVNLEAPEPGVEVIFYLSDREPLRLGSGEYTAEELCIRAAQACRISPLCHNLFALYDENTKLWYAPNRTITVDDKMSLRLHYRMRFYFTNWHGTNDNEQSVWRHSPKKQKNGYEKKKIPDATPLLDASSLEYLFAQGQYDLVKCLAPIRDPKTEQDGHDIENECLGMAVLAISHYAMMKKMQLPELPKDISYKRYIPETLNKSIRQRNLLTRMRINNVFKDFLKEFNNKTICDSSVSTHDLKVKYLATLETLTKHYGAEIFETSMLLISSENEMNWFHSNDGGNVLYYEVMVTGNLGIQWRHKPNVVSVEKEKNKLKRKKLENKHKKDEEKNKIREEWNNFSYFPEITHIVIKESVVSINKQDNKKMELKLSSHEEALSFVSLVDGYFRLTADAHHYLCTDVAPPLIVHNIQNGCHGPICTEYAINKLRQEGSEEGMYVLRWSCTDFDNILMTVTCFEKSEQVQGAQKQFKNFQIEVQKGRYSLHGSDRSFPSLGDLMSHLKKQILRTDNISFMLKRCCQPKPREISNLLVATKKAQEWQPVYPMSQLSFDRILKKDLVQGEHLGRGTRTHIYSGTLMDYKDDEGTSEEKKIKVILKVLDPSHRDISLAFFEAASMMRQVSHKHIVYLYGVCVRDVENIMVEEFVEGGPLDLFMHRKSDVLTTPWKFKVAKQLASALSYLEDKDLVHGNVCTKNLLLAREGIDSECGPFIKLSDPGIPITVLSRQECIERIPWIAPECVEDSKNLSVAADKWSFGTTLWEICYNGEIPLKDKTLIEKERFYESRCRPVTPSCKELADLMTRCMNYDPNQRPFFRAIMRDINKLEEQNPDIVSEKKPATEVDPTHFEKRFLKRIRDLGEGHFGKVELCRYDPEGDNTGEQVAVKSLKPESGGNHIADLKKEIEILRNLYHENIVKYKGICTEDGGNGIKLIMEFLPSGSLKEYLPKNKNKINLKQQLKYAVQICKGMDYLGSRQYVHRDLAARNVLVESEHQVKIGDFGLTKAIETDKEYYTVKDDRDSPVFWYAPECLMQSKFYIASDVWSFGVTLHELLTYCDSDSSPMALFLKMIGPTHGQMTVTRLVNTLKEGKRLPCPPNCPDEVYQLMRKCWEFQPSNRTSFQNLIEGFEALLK
Chain of JAK3 (P52333 whole entry): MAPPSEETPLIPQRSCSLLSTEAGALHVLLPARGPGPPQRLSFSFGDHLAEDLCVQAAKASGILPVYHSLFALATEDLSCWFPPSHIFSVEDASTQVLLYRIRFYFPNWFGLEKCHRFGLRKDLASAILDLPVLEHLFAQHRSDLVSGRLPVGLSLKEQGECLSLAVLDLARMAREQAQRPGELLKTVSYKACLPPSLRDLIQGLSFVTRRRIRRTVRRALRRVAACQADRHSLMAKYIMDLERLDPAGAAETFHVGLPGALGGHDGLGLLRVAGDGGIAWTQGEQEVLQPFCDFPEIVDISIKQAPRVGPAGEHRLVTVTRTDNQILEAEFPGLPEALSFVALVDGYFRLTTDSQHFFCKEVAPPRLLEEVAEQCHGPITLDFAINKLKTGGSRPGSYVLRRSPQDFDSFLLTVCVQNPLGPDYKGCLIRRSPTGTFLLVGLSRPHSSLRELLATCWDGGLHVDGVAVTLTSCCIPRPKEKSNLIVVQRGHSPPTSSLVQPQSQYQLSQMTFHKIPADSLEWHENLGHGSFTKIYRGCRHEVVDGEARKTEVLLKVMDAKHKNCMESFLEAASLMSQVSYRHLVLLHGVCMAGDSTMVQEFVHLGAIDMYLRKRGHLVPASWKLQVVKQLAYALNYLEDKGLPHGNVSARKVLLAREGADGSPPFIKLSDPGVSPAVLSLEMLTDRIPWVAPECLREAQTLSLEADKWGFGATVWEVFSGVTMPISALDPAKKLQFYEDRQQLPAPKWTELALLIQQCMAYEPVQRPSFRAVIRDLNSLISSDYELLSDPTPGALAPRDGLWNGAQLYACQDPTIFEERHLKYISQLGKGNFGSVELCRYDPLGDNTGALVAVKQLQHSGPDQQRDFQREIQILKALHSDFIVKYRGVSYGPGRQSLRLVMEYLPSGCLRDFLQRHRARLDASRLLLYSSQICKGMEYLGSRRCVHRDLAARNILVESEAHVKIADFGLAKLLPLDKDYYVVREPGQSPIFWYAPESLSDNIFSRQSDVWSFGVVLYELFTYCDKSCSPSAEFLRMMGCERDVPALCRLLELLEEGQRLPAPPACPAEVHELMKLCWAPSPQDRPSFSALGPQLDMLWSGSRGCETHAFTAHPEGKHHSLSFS

A word on the pIC50: it is −log10 of the IC50, conventionally taken in molar units. On to `N#CCC1(n2cc(-c3ncnc4[nH]ccc34)cn2)CCS(=O)(=O)CC1` [Example 3, 2-(4-(4-(7H-pyrrolo[2,3-d]pyrimidin-4-yl)-1H-pyrazol-1-yl)-1,1-dioxotetrahydro-2H-thiopyran-4-yl)acetonitrile], for which the pIC50 in data set [1] was 7.30 to 7.70. The “hematological parameter WBC compared with the control group (Veh)” value in data set [2] (gavage 1.5 mg·kg−1·d−1 once a day for 4 weeks) and in data set [2] (setting [5]) was “no significant decrease” in each case.
In the case of `CC[C@](C)(C#N)Nc1ccnc(-c2ccnc3[nH]ccc23)n1` [Example 62], the pIC50 in data set [3], in data set [1] and in data set [4] was less than 7.30 throughout.
As for `N#CC[C@H](C1CCCC1)n1cc(-c2ncnc3[nH]ccc23)cn1` [Ruxolitinib, reference compound], in data set [2] (setting [5]), the “hematological parameter WBC compared with the control group (Veh)” value was “significant decrease”.
